Patent US10828315B2 (Madrigal Pharmaceuticals, Inc., priority 2013, dated 2020)
Read-outs that look alike come from different tables or passages of the source.

Assays:
[1] = Mouse plasma stability protocol, up to 1 h (Examples 16-18)
[2] = tested on: HER2; assay: HER2 degradation assay with BT-474 cell line (Example 12, FACS); format: cell-based, human
Text: HER2 has emerged as a key target for anticancer drugs due to its intrinsic involvement in the phosphatidylinositol-3-kinase-Akt/protein kinase B (PI3K-Akt) and the mitogen-activated protein kinase (MAPK) pathways, both of which suppress apoptosis and promote tumor cell survival, gene transcription, angiogenesis, cellular proliferation, migration, mitosis, and differentiation. The degradation of HER2 is a measure of efficacy of anticancer therapeutics that target Hsp90. Accordingly, the SDC-TRAP molecules of the invention that comprise a binding moiety that binds Hsp90 were tested in the following HER2 degradation assay.
BT-474 cells (human breast cancer cell line ATCC HTB-20) were obtained from ATCC and seeded into 12-well tissue culture plates at 0.2×10^6/1.8 mL/well. […] Each test compound was titrated in 4-fold dilutions from 5 μM to 78 nM with DMSO and 200 μL of the titration was added to each well of the cell plate. The DMSO final concentration was 0.2%. Cells were incubated overnight at 37° C. in 5% CO2.
Media was decanted from the plate, cells were washed 1× in PBS. 400 μL trypsin (EDTA) per well was added, and the cells were incubated for 2 to 3 minutes. Cells were collected into FACS tubes containing 1 ml culture medium to neutralize the trypsin and were centrifuged for 5 minutes at 1200 rpm. Supernatant was decanted and the cells were resuspended in 5 μL FITC (anti HER2/nu)/200 μL staining buffer (1×PBS+1% FBS+0.05% Sodium Azide)/tube. Controls were 5 μL IgG isotype control and staining buffer only. Tubes were incubated for 30 minutes in the dark at room temperature. 1 mL staining buffer was added to each tube and the tubes were centrifuged for 6 minutes at 1200 rpm. The supernatant was decanted and 300 μL staining buffer was added to each tube, which was store at 4° C. fpr FACS (cytometer) analysis. The cytometer readout was normalized and the potency of each compound is evaluated with IC50 calculated with XLfit™ software.

[3] = % Remaining of parent after 1 h incubation in mouse plasma at 37° C. (10 μM)

With `CCc1c2c(nc3ccc(OC(=O)N4CCCCC4C(=O)N4CCC(CCn5ccc6cc(-n7c(O)nnc7-c7cc(C(C)C)c(O)cc7O)ccc65)CC4)cc13)-c1cc3c(c(=O)n1C2)COC(=O)[C@]3(O)CC` (stereo partly drawn) [SDC-TRAP-0215, (S)-4,11-diethyl-4-hydroxy-3,14-dioxo-3,4,12,14-tetrahydro-1H-pyrano[3′,4′:6,7]indolizino[1,2-b]quinolin-9-yl 2-(4-(2-(5-(3-(2,4-dihydroxy-5-isopropylphenyl)-5-hydroxy-4H-1,2,4-triazol-4-yl)-1H-indol-1-yl)ethyl)piperidine-1-carbonyl)piperidine-1-carboxylate] the “% Remaining (1 h, 37° C.)” value ([1]; mouse plasma, 37° C.) was 77.2% and the IC50 [2] was 2.75 µM.

In the case of `CCc1c2c(nc3ccc(O)cc13)-c1cc3c(c(=O)n1C2)COC(=O)[C@@]3(CC)OC(=O)N1CCC(CCc2ccc(-n3c(O)nnc3-c3cc(C(C)C)c(O)cc3O)cc2)CC1` [SDC-TRAP-0104, (S)-4,11-diethyl-9-hydroxy-3,14-dioxo-3,4,12,14-tetrahydro-1H-pyrano[3′,4′:6,7]indolizino[1,2-b]quinolin-4-yl 4-(4-(3-(2,4-dihydroxy-5-isopropylphenyl)-5-hydroxy-4H-1,2,4-triazol-4-yl)phenethyl)piperidine-1-carboxylate], the “% Remaining (1 h)” value [1, 3] is reported as 95.5%, the “% Remaining (1 h, 37° C.)” value ([1]; mouse plasma, 37° C.) is reported as 95.5% and the IC50 [2] is reported as 0.35 µM.

With `CCNC(=O)c1nnc(-c2cc(C(C)C)c(O)cc2O)n1-c1ccc(C(=O)N2CCN(C(=O)COC(=O)OC3(CC)C(=O)OCc4c3cc3n(c4=O)Cc4c-3nc3ccc(O)cc3c4CC)CC2)cc1` (stereo not drawn) [SDC-TRAP-0202, 4,11-diethyl-9-hydroxy-3,14-dioxo-3,4,12,14-tetrahydro-1H-pyrano[3′,4′:6,7]indolizino[1,2-b]quinolin-4-yl (2-(4-(4-(3-(2,4-dihydroxy-5-isopropylphenyl)-5-(ethylcarbamoyl)-4H-1,2,4-triazol-4-yl)benzoyl)piperazin-1-yl)-2-oxoethyl) carbonate] the “% Remaining (1 h)” value [1, 3] was 21.2%, the “% Remaining (1 h, 37° C.)” value ([1]; mouse plasma, 37° C.) was 21.2% and the IC50 [2] was > 5 µM.

In the case of `CCNC(=O)c1nnc(-c2cc(C(C)C)c(O)cc2O)n1-c1ccc(Oc2ccc(C(=O)N3CCC(N(C)C(=O)Oc4ccc5nc6c(c(CC)c5c4)Cn4c-6cc5c(c4=O)COC(=O)C5(O)CC)CC3)cc2)cc1` (stereo not drawn) [SDC-TRAP-0180, 4,11-Diethyl-4-hydroxy-3,14-dioxo-3,4,12,14-tetrahydro-1H-pyrano[3′,4′:6,7]indolizino[1,2-b]quinolin-9-yl (1-(4-(4-(3-(2,4-dihydroxy-5-isopropylphenyl)-5-(ethylcarbamoyl)-4H-1,2,4-triazol-4-yl)phenoxy)benzoyl)piperidin-4-yl)(methyl)carbamate], the “% Remaining (1 h)” value [1, 3] is reported as 72.4%, the “% Remaining (1 h)” value ([1]; mouse plasma, 37° C., 10 μM) is reported as 72.4% and the “% Remaining (1 h, 37° C.)” value ([1]; mouse plasma, 37° C.) is reported as 72.4%. It also gave an IC50 [2] of 0.325 µM.

For `CCNC(=O)c1nnc(-c2cc(C(C)C)c(O)cc2O)n1-c1ccc(Oc2ccc(OC(=O)N(C)CCOC(=O)Nc3cccc4c3CN(C3CCC(=O)NC3=O)C4=O)cc2)cc1` (stereo not drawn), the “% Remaining (1 h)” value [1, 3] was 51.2% and the IC50 [2] was 2.86 µM.

With `CCNC(=O)c1nnc(-c2cc(C(C)C)c(O)cc2O)n1-c1ccc(Oc2ccc(C(=O)N3CCC(C(=O)OC4(CC)C(=O)OCc5c4cc4n(c5=O)Cc5cc6c(CN(C)C)c(O)ccc6nc5-4)CC3)cc2)cc1` (stereo not drawn) [SDC-TRAP-0159, 10-((dimethylamino)methyl)-4-ethyl-9-hydroxy-3,14-dioxo-3,4,12,14-tetrahydro-1H-pyrano[3′,4′:6,7]indolizino[1,2-b]quinolin-4-yl-1-(4-(4-(3-(2,4-dihydroxy-5-isopropylphenyl)-5-(ethylcarbamoyl)-4H-1,2,4-triazol-4-yl)phenoxy)benzoyl)piperidine-4-carboxylate] the “% Remaining (1 h)” value [1, 3] was 121% and the IC50 [2] was > 1 µM.

Work on `CCc1c2c(nc3ccc(OC(=O)N4CCN(c5ccc(-n6c(O)nnc6-c6cc(C(C)C)c(O)cc6O)cn5)CC4)cc13)-c1cc3c(c(=O)n1C2)COC(=O)[C@]3(O)CC` [SDC-TRAP-0090, (S)-4,11-diethyl-4-hydroxy-3,14-dioxo-3,4,12,14-tetrahydro-1H-pyrano[3′,4′:6,7]indolizino[1,2-b]quinolin-9-yl 4-(5-(3-(2,4-dihydroxy-5-isopropylphenyl)-5-hydroxy-4H-1,2,4-triazol-4-yl)pyridin-2-yl)piperazine-1-carboxylate] yielded an IC50 [2] of 4.6 µM.

For `CCc1c2c(nc3ccc(O)cc13)-c1cc3c(c(=O)n1C2)COC(=O)[C@@]3(CC)OC(=O)N1CCC(COc2ccc(-n3c(O)nnc3-c3cc(C(C)C)c(O)cc3O)cc2)CC1` [SDC-TRAP-0014, (S)-4,11-diethyl-9-hydroxy-3,14-dioxo-3,4,12,14-tetrahydro-1H-pyrano[3,4:6,7]indolizino[1,2-b]quinolin-4-yl 4-((4-(3-(2,4-dihydroxy-5-isopropylphenyl)-5-hydroxy-4H-1,2,4-triazol-4-yl)phenoxy)methyl)piperidine-1-carboxylate], the IC50 [2] was > 5 µM.

For `Cc1cc(C(=O)N2CCN(Cc3ccc(-n4c(O)nnc4-c4cc(C(C)C)c(O)cc4O)cc3F)CC2)cc(C)c1OC(=O)Nc1cccc2c1CN(C1CCC(=O)NC1=O)C2=O` (stereo not drawn) [SDC-TRAP-0168, 4-(4-(4-(3-(2,4-dihydroxy-5-isopropylphenyl)-5-hydroxy-4H-1,2,4-triazol-4-yl)-2-fluorobenzyl)piperazine-1-carbonyl)-2,6-dimethylphenyl (2-(2,6-dioxopiperidin-3-yl)-1-oxoisoindolin-4-yl)carbamate], the IC50 [2] was 0.276 µM.

In the case of `CCc1c2c(nc3ccc(OC(=O)N4CCC(N5Cc6ccc(-n7c(O)nnc7-c7cc(C(C)C)c(O)cc7O)cc6C5)CC4)cc13)-c1cc3c(c(=O)n1C2)COC(=O)[C@]3(O)CC` [SDC-TRAP-0089, (S)-4,11-diethyl-4-hydroxy-3,14-dioxo-3,4,12,14-tetrahydro-1H-pyrano[3′,4′:6,7]indolizino[1,2-b]quinolin-9-yl 4-(5-(3-(2,4-dihydroxy-5-isopropylphenyl)-5-hydroxy-4H-1,2,4-triazol-4-yl)isoindolin-2-yl)piperidine-1-carboxylate], the IC50 [2] is reported as 1.47 µM.

Work on `CCc1c2c(nc3ccc(O)cc13)-c1cc3c(c(=O)n1C2)COC(=O)C3(CC)OC(=O)N1CCN(Cc2ccc(-n3c(O)nnc3-c3cc(C(C)C)c(O)cc3O)cc2F)CC1` (stereo not drawn) [SDC-TRAP-0079, 4,11-diethyl-9-hydroxy-3,14-dioxo-3,4,12,14-tetrahydro-1H-pyrano[3′,4′:6,7]indolizino[1,2-b]quinolin-4-yl 4-(4-(3-(2,4-dihydroxy-5-isopropylphenyl)-5-hydroxy-4H-1,2,4-triazol-4-yl)-2-fluorobenzyl)piperazine-1-carboxylate] yielded an IC50 [2] of 1.43 µM.

For `CCOC(=O)c1nnc(-c2cc(C(C)C)c(O)cc2O)n1-c1ccc(CN2CCC(C(=O)N[C@H]3C[C@H](O[C@H]4C[C@](O)(C(=O)CO)Cc5c(O)c6c(c(O)c54)C(=O)c4c(OC)cccc4C6=O)O[C@@H](C)[C@H]3O)CC2)cc1` [SDC-TRAP-0142, ethyl-5-(2,4-dihydroxy-5-isopropylphenyl)-4-(4-((4-(((2S,3S,4S,6R)-3-hydroxy-2-methyl-6-(((1S,3S)-3,5,12-trihydroxy-3-(2-hydroxyacetyl)-10-methoxy-6,11-dioxo-1,2,3,4,6,11-hexahydrotetracen-1-yl)oxy)tetrahydro-2H-pyran-4-yl)carbamoyl)piperidin-1-yl)methyl)phenyl)-4H-1,2,4-triazole-3-carboxylate], the IC50 ([2]; BT-474 cells, overnight) was > 10 µM.

Work on `CCc1c2c(nc3ccc(O)cc13)-c1cc3c(c(=O)n1C2)COC(=O)C3(CC)OC(=O)N1CCN(Cc2cc3cc(-n4c(O)nnc4-c4cc(C(C)C)c(O)cc4O)ccc3n2C)CC1` (stereo not drawn) [SDC-TRAP-0075, 4,11-diethyl-9-hydroxy-3,14-dioxo-3,4,12,14-tetrahydro-1H-pyrano[3′,4′:6,7]indolizino[1,2-b]quinolin-4-yl 4-((5-(3-(2,4-dihydroxy-5-isopropylphenyl)-5-hydroxy-4H-1,2,4-triazol-4-yl)-1-methyl-1H-indol-2-yl)methyl)piperazine-1-carboxylate] yielded an IC50 [2] of 0.953 µM.

`CCc1c2c(nc3ccc(O)cc13)-c1cc3c(c(=O)n1C2)COC(=O)[C@@]3(CC)OC(=O)N(C)CCN1CCN(Cc2ccc(-n3c(O)nnc3-c3cc(C(C)C)c(O)cc3O)cc2)CC1` [SDC-TRAP-0087, (S)-4,11-diethyl-9-hydroxy-3,14-dioxo-3,4,12,14-tetrahydro-1H-pyrano[3′,4′:6,7]indolizino[1,2-b]quinolin-4-yl (2-(4-(4-(3-(2,4-dihydroxy-5-isopropylphenyl)-5-hydroxy-4H-1,2,4-triazol-4-yl)benzyl)piperazin-1-yl)ethyl)(methyl)carbamate] showed an IC50 [2] of 0.535 µM.
